# From patent US20030206968A1, “Fungicidal mixtures” (priority 1999, published 2003)
# Tests used:
# Type in all cases: in vivo
# [1] = system: Blumeria graminis; assay: Greenhouse, Blumeria graminis on wheat, 4 days residual; details: Example 30
# Method: (§1) The trials are carried out under greenhouse (Examples 1 to 32) or field conditions (Examples 33 to 40) in residual or curative applications. The fungicides are applied in single treatments, or in a combination comprising an azolopyrimidine of formula I and a compound selected from the classes (A), (B) and (C) as defined above. The compounds are applied in form of an aqueous spray mix obtained from a concentrated formulation or the technical material.
# (§2) 1. Seed is planted in 6 cm diameter plastic pots and maintained in the greenhouse.
# (§3) 2. When the primary leaf is fully expanded in the case of cereals or several leaves are present in the case of dicots, formulated test compounds are sprayed with a three nozzle overhead fungicide sprayer to near run-off. Alternatively, a single nozzle overhead track sprayer is used for application of the compounds to cereals at a rate of 200 l/ha. Plants are then allowed to air-dry.
# (§4) 3. Inoculation precedes treatment in the case of curative evaluations and follows treatment in case of residual evaluations. For inoculation of powdery mildew disease, plants are set up on greenhouse benches with bottom watering mats and inoculated by dusting them with conidia from infected plants. Between inoculation and treatment for curative evaluations and between treatment and inoculation for residual evaluations, plants are maintained in the greenhouse with bottom watering.
# (§5) 4. Disease on the foliage as percent leaf area with disease symptoms/signs is evaluated about 7 days after inoculation. In the case of wheat, the tips and bases of the leaves are excluded from the evaluation. [formula]
# (§6) 1. Technical compounds are formulated in a solvent/surfactant system consisting of 5% acetone and 0.05% Tween 20 in deionized water. Compounds are dissolved in acetone prior to addition of the water; the Tween 20 can be added through either the acetone or the water. Dilutions are made using the solvent/surfactant system. Formulated compounds are prepared using deionized water.
# (§7) 2. Two kinds of controls are included: Plants treated with the solvent/surfactant solution and inoculated (Solvent Blank). Untreated plants which are inoculated (Inoculated Control).
# (§8) Assessments of the diseases took place at the indicated day after the application of the compounds. Per cent infected leaf area infected was evaluated. The efficacy of the compounds/compounds mixtures to control the diseases was calculated by using the formula given above under item 4: […]
# (§9) Synergy was calculated using the % disease control values of specific treatments for the two COLBY formula given hereinabove
# Fungicidal efficacy of the mixture of (S)-Azolopyrimidine C in admixture with Azoxystrobin or Trifloxystrobin (4 days residual) against Blumeria graminis on wheat. The tank mixes were obtained from technical material of (S)-Azolopyrimidine C and Azoxystrobin or Trifloxystrobin.
# [2] = system: Puccinia recondita; assay: Greenhouse, Puccinia recondita on wheat, 4 days residual; details: Example 31
# Method: as §1, §2, §3, §4
# For inoculation of non-powdery mildew diseases, an aqueous spore suspension of the pathogen is applied to the plant and the plants are kept 1-2 days in a moist infection chamber before being returned to the greenhouse where they are maintained by bottom watering.
# as §5, §6, §7, §8, §9
# Fungicidal efficacy of the mixture of (S)-Azolopyrimidine C in admixture with Azoxystrobin or Trifloxystrobin (4 days residual) against Puccinia recondita on wheat. The tank mixes were obtained from technical material of (S)-Azolopyrimidine C and Azoxystrobin or Trifloxystrobin.
# [3] = system: Septoria tritici; assay: Field test, Septoria tritici on wheat
# Method: as §1
# For the field study formulated Azolopyrimidine A, B or C and formulated compounds from the classes (A), (B) and (C) were used.
# as §8, §9
# The compounds are applied according to good agricultural practice in the form of an aqueous spray mix obtained from a concentrated formulation or the technical material at a rate of 400 l/ha. The disease control is evaluated according to the formula given for the greenhouse tests.
# Fungicidal efficacy of the mixture of Azolopyrimidine C+metconazole in the field against Septoria tritici on wheat The tank mix was obtained from an EC formulation containing 150 g Azolopyrimidine C per liter and a SL formulation containing 60 g metconazole per liter. The observed and expected efficacies with different rates are given in Table XXXIVa (19 days after application) and Table XXXIVb (25 days after application):
# Fungicidal efficacy of the mixture of (S)-Azolopyrimidine C+kresoxim methyl in the field against Septoria tritici on wheat The tank mix was obtained from a SC formulation containing 100 g (S)-Azolopyrimidine C per liter and a WG formulation containing 500 g kresoxim methyl per kg. The observed and expected efficacies with different rates are given in Tables XXXVa (7 days after application), XXXVb (22 days after application), XXXVc (34 days after application), and XXXVd (41 days after application):
# Fungicidal efficacy of the mixture of Azolopyrimidine A and different cereal fungicides the field against Septoria tritici on wheat 15 days after application The tank mix was obtained from an SC formulation containing 100 g Azolopyrimidine A per liter and commercially available formulations of metconazole, epoxiconazole or propiconazole, respectively.
# [4] = system: Blumeria graminis; assay: Greenhouse, Blumeria graminis on wheat, 1 day residual
# Source text: as §1, with “The” for “The trials are carried out under greenhouse (Examples 1 to 32) or field conditions (Examples 33 to 40) in residual or curative applications. The”
# as §2, §3, §4, §5, §6, §7, §8, §9
# Fungicidal efficacy of the mixture of Azolopyrimidine C+quinoxyfen (1 day residual)) against Blumeria graminis on wheat The tank mix was obtained from technical material of Azolopyrimidine C and quinoxyfen.
# Fungicidal efficacy of the mixture of Azolopyrimidine C+metalaxyl (1 day residual) against Blumeria graminis on wheat The tank mix was obtained from technical material of Azolopyrimidine C and metalaxyl.
# Fungicidal efficacy of the mixture of Azolopyrimidine C+famoxadone (1 day residual) against Blumeria graminis on wheat The tank mix was obtained from technical material of Azolopyrimidine C and famoxadone.
# [5] = system: Erysiphe cichoracearum; assay: Greenhouse, Erysiphe cichoracearum on cucumbers, 1 day residual
# Method: as §1, §2, §3, §4, §5, §6, §7, §8, §9
# Fungicidal efficacy of the mixture of Azolopyrimidine C+triforine (1 day residual) against Erysiphe cichoracearum on cucumbers
# the tank mix was obtained from a SC formulation containing 100 g of Azolopyrimidine C per liter and an DC formulation containing and 190 g of triforine per liter.
# Fungicidal efficacy of the mixture of Azolopyrimidine C+cyprodinil (1 day residual) against Erysiphe cichoracearum on cucumbers The tank mix was obtained from a SC formulation containing 100 g of Azolopyrimidine C per liter and a WG formulation containing and 750 g of cyprodinil per kg.
compound,measurement,setting,value
"5-chloro-6-(2,4,6-trifluorophenyl)-7-(1,1,1-trifluoroprop-2-ylamino)-[1,2,4]triazolo[1,5-a]pyrimidine [(S)-Azolopyrimidine C]",Observed Efficacy,[1]; dose rate 3.1 ppm,0%
same,Observed Efficacy,[1]; dose rate 6.3 ppm,0%
same,Observed Efficacy,[1]; dose rate 12.5 ppm,3%
same,Observed Efficacy,[1]; dose rate 25 ppm,11%
same,Observed Efficacy,[1]; dose rate 50 ppm,34%
same,Observed Efficacy,[2]; dose rate 3.1 ppm,0%
same,Observed Efficacy,[2]; dose rate 6.3 ppm,9%
same,Observed Efficacy,[2]; dose rate 12.5 ppm,16%
same,Observed Efficacy,[2]; dose rate 25 ppm,27%
same,Observed Efficacy,[2]; dose rate 50 ppm,50%
same,Observed Efficacy,"[3]; (S)-Azolopyrimidine C 75 g/ha alone, 41 days after application, field, wheat",92
same,Observed Efficacy,"[3]; Example 35, 7 days after application, dose rate 25 g/ha",34%
same,Observed Efficacy,"[3]; Example 35, 22 days after application, dose rate 25 g/ha",74%
same,Observed Efficacy,"[3]; Example 35, 22 days after application, dose rate 100 g/ha",87%
same,Observed Efficacy,"[3]; Example 35, 34 days after application, dose rate 50 g/ha",53%
same,Observed Efficacy,"[3]; Example 35, 34 days after application, dose rate 100 g/ha",70%
"CC(Nc1c(-c2c(F)cc(F)cc2F)c(Cl)nc2ncnn12)C(F)(F)F (centres unmarked) [Azolopyrimidine C, 5-chloro-6-(2,4,6-trifluorophenyl)-7-(1,1,1-trifluoroprop-2-ylamino)-[1,2,4]triazolo[1,5-a]pyrimidine]",Observed Efficacy,"[4]; Example 16, dose rate 0.06 ppm",0%
same,Observed Efficacy,"[4]; Example 16, dose rate 0.25 ppm",19%
same,Observed Efficacy,"[4]; Example 16, dose rate 1 ppm",42%
same,Observed Efficacy,"[4]; Example 16, dose rate 4 ppm",96%
same,Observed Efficacy,"[4]; Example 17, dose rate 0.06 ppm",0%
same,Observed Efficacy,"[4]; Example 17, dose rate 0.25 ppm",19%
same,Observed Efficacy,"[4]; Example 17, dose rate 1 ppm",42%
same,Observed Efficacy,"[4]; Example 17, dose rate 4 ppm",96%
same,Observed Efficacy,"[4]; Example 18, dose rate 0.06 ppm",0%
same,Observed Efficacy,"[4]; Example 18, dose rate 0.25 ppm",19%
same,Observed Efficacy,"[4]; Example 18, dose rate 1 ppm",42%
same,Observed Efficacy,"[4]; Example 18, dose rate 4 ppm",96%
same,Observed Efficacy,"[5]; Example 23, dose rate 1 ppm",0%
same,Observed Efficacy,"[5]; Example 23, dose rate 4 ppm",7%
same,Observed Efficacy,"[5]; Example 24, dose rate 1 ppm",0%
same,Observed Efficacy,"[5]; Example 24, dose rate 4 ppm",7%
same,Observed Efficacy,"[3]; Example 34, 19 days after application, dose rate 25 g/ha",48%
same,Observed Efficacy,"[3]; Example 34, 25 days after application, dose rate 50 g/ha",61%
same,Observed Efficacy,"[3]; Example 34, 25 days after application, dose rate 75 g/ha",13%
